Data set [1] concerns the target T1, DhaTPp (Pseudomonas putida, UniProt Q88J46).
T1 construct: gene dhaT; C-terminal His-tag (plasmid p92), expressed in and purified from H. bluephagenesis TDΔdddA
T1 sequence (Q88J46 1-394): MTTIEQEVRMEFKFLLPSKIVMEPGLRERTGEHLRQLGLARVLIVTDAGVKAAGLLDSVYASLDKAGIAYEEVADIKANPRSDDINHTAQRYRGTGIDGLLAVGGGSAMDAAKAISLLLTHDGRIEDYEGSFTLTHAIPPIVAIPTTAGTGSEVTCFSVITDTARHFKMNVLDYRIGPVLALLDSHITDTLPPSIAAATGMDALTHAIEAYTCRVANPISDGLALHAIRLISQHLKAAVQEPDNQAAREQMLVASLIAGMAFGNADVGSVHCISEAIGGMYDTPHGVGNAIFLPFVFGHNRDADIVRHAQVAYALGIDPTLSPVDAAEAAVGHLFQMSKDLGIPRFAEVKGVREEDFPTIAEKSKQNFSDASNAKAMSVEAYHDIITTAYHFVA
The experiment in a line: specific activity, NADH formation. Format: biochemical. To be noted: 150 mM 1,3-propanediol, 2 mM NAD+, 100 mM potassium carbonate pH 9.0, 30 mM ammonium sulfate, 37 °C.

The target of data set [2] is T2, DhaTKp (Klebsiella pneumoniae, UniProt Q7WRJ3).
T2 construct: gene dhaT; C-terminal His-tag (plasmid p95), expressed in and purified from H. bluephagenesis TDΔdddA
T2 sequence (Q7WRJ3 1-387): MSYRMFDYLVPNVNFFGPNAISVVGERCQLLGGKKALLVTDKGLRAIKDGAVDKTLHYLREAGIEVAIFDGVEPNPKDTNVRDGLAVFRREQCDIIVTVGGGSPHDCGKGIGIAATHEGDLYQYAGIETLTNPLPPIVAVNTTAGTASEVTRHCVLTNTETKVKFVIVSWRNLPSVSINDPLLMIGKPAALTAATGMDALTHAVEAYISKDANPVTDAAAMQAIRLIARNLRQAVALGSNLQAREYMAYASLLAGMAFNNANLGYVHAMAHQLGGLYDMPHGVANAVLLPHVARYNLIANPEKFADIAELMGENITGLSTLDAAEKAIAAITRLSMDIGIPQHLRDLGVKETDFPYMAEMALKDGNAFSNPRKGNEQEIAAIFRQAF
The experiment in a line: specific activity, NADH formation. It counts as biochemical. The conditions noted are these: 150 mM 1,3-propanediol, 2 mM NAD+, 100 mM potassium carbonate pH 9.0, 30 mM ammonium sulfate, 37 °C.

Data set [3] deals with T3, AldH (Escherichia coli, UniProt P23883).
T3 construct: gene puuC; N-terminal His-tag (plasmid p99), expressed in and purified from H. bluephagenesis TDΔdddA
T3 sequence (P23883 1-495): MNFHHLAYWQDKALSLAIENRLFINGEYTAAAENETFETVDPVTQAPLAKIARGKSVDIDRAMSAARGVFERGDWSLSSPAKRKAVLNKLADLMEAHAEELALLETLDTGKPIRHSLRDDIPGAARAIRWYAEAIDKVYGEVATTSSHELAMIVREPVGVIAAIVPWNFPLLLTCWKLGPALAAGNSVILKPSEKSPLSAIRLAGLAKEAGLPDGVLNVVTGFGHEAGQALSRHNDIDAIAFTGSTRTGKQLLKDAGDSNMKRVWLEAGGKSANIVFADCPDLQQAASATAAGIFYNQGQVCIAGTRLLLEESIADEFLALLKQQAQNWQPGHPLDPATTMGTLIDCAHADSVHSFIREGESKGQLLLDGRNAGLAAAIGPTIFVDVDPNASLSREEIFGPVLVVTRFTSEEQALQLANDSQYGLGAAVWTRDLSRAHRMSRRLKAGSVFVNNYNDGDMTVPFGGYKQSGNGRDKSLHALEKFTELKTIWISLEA
The experiment in a line: specific activity, NADH formation. Format: biochemical. The conditions noted are these: 2.0 mM 3HPA, 2.0 mM NAD+, 100 mM potassium phosphate pH 8.0, 1 mM DTT, 37 °C.

In data set [4] the target is T4, PuuC (Klebsiella pneumoniae, UniProt A0A378BL98).
T4 construct: N-terminal His-tag (plasmid p100), expressed in and purified from H. bluephagenesis TDΔdddA
T4 sequence (A0A378BL98 1-495): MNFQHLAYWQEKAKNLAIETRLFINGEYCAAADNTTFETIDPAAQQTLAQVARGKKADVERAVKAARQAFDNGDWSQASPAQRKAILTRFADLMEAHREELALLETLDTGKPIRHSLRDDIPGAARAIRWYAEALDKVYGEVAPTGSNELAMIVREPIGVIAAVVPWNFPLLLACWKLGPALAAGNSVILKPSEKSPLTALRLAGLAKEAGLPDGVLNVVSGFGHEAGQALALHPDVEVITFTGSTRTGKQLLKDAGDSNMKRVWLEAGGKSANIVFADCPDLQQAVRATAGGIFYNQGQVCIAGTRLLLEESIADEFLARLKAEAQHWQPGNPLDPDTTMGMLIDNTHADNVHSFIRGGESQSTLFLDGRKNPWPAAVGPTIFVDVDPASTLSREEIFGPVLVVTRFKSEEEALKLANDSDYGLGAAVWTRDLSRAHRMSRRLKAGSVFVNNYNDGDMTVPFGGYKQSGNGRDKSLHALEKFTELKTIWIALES
The experiment in a line: specific activity, NADH formation. It counts as biochemical. To be noted: 2.0 mM 3HPA, 2.0 mM NAD+, 100 mM potassium phosphate pH 8.0, 1 mM DTT, 37 °C.

The target in data set [5] is T5, AldDPp (Pseudomonas putida, UniProt Q88QE9).
T5 construct: gene aldB-I; N-terminal His-tag (plasmid p98), expressed in and purified from H. bluephagenesis TDΔdddA
T5 sequence (Q88QE9 1-506): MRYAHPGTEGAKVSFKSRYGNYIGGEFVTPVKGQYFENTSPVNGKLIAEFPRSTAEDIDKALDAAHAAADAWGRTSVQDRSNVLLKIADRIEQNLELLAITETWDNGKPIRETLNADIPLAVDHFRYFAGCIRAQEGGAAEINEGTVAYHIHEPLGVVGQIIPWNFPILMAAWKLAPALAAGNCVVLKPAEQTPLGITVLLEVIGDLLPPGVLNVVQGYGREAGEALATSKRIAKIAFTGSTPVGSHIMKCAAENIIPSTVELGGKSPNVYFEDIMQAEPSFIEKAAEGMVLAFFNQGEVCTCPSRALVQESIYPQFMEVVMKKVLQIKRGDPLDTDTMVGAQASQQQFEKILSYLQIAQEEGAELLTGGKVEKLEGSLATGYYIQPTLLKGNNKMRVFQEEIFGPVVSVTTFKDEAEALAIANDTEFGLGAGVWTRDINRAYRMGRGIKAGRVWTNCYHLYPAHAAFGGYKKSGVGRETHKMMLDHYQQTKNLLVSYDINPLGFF
The experiment in a line: specific activity, NADH formation. Format: biochemical. The conditions noted are these: 2.0 mM 3HPA, 2.0 mM NAD+, 100 mM potassium phosphate pH 8.0, 1 mM DTT, 37 °C.

Substrate in data set [6]: O=CCCO
The experiment in a line: purified protein. The conditions noted are these: 2 mM NAD+, 50 mM potassium phosphate pH 8.0, 1.0 mM DTT, 37 °C. Format: biochemical, Halomonas sp. TD01.

For `OCCCO` [1,3-propanediol], the “specific activity, NADH formation” value is “higher than the alcohol dehydrogenase of P. putida DhaTPp and K. pneumoniae DhaTKp” in data set [1]; “higher than the alcohol dehydrogenase of P. putida DhaTPp and K. pneumoniae DhaTKp” in data set [2].
As for `O=CCCO` [3HPA], the “specific activity, NADH formation” value in data set [3] is “four different aldehyde dehydrogenases (AldDHb, AldDPp, AldH, and PuuC) were analyzed”; in data set [4] it was “four different aldehyde dehydrogenases (AldDHb, AldDPp, AldH, and PuuC) were analyzed”; in data set [5] it was “four different aldehyde dehydrogenases (AldDHb, AldDPp, AldH, and PuuC) were analyzed”.

B1: AldDHb (Halomonas sp. TD01) (protein)
chain: MIYANPGDAGSVVSFEKRFGNYIGGEFVPPVNGQYFDNISPVNGQVFCEIPRSSAEDIEKALDAAHKAAPAWGKTSVQERSNILLKIADRLEQNLEMLAVAETWDNGKAVRETLNADIPLAVDHFRYFAGCLRSQEGTAADIDANTVAYHFHEPLGVVGQIIPWNFPILMAAWKLGPALAAGNCVILKPAEQTPASILKVMEVIGDLLPPGVLNVVNGFGAEAGQALATSKRIAKIAFTGSTPVGSHILKCAAENIIPSTVELGGKSPNIYFADIMNAEPTFIDKAVEGLVLAFFNQGEVCTCPSRALIQESMYDEFMAKVVERTKTIKRGNPLDTDVQVGAQASQEQFDKIMSYMDIARDEGAEFLAGGDKESLDDSINGGYYIQPTLLKGNNKMRVFQEEIFGPVVAVTTFKDEEEALAIANDTEFGLGAGVWSRDINVAFRMGRGIQAGRVWTNCYHQYPAHAAFGGYKKSGVGRETHKVALEHYQQTKNLLVSYDINPLGFF
notes: 506 residues, C-terminal His-tag (plasmid p91), expressed in and purified from H. bluephagenesis TDΔdddA
Broadly, the Km is the substrate concentration at which the rate is half of its maximum. Broadly, the kcat is the maximal rate divided by the concentration of active sites. As usually defined, the kcat/Km is the second-order rate constant that governs catalysis at low substrate concentration. As for B1, in data set [6], the Michaelis-Menten constant (Km) stood at 50 ± 2 µM, the kcat stood at 3.38 ± 0.09 s⁻¹ and the kcat/Km stood at 67400 ± 797 M⁻¹ s⁻¹.

These data come from paper PMC7940609, “Hyperproduction of 3-hydroxypropionate by Halomonas bluephagenesis” (Nature Communications, 2021).
